Laboratory results from US20100120715A1, “BETA-LACTAMASE INHIBITORS” (priority 2007, published 2010).
Like-named read-outs stand apart in the source and are kept apart here.

What was measured:
Class A ESBL SHV-5 = biological target: T1, Class A ESBL SHV-5 (Klebsiella pneumoniae, UniProt P0A3M1); type: biochemical, E. coli; details: nitrocefin 100 μM, PBS pH 7.0, read-out: SHV-5 IC50 Range
T1 construct: made in house; host or cells: E. coli BL21(DE3) for purified enzyme; E. coli cells containing SHV-5 for extracts
Experimental: (§1) Isolation of β-lactamases. For all examples, purified beta-lactamase enzymes were used to measure a compounds' ability to inhibit the Class A ESBL CTXM-15, the Class C P99 AmpC and the Class A carbapenemase KPC-2. […] The enzyme preparations are described herein.
For the preparation of SHV-5 extracts, E. coli cells containing SHV-5 were cultured overnight with shaking at a volume of 20 mL. They were further diluted 10-fold and grown to mid-log phase (OD at 600 nm, 0.5-0.8) in Mueller-Hinton II (MH-II) broth at 37° C. The cells were pelleted at 5000 g, washed and resuspended in 2 mL PBS pH 7.0. The β-lactamase was extracted by four cycles of freezing and thawing followed by centrifugation. β-lactamase activity in the extract was measured with the chromogenic cephalosporin nitrocefin. The amount of protein in each β-lactamase preparation was determined by the bicinchoninic acid (BCA) assay.
(§2) For the isolation and purification of SHV-5, p99 AmpC, KPC-2 and CTX-M15 β-lactamases, E. coli BL21(DE3) bacterial cells carrying expression plasmids (expressed as native untagged proteins) for the individual β-lactamases were grown in 1 L of Superbroth (Teknova Inc. Hollister, Calif.) supplemented with 100 μg/ml kanamycin and 1×5052 (0.5% glycerol, 0.05% glucose and 0.2% α-lactose) at 35° C. for 18-20 hours. Cells were harvested by centrifugation (4,000×g, 4° C., 20 min), and resuspended in 50 ml of 10 mM HEPES pH 7.5 ( 1/20 of the initial volume). The cells were lysed by sonication (5 pulses of 45 seconds) at 45 W on ice. The lysates were clarified by centrifugation at 10,000×g for 40 minutes at 4° C. Samples were diluted 5-fold in 50 mM sodium acetate pH 5.0, stored overnight at 4° C., after which they were centrifuged at 10,000×g for 30 minutes to clarify, and filtered through 0.45 μm filters. The samples were loaded onto a 5 ml Capto S sepharose cation exchange column (GE Healthcare) pre-equilibrated with 50 mM sodium acetate pH 5.0. The column was washed with 5 column volumes of 50 mM sodium acetate pH 5.0 to wash out unbound protein and a linear gradient of NaCl (0 to 500 mM) was used to elute the protein (over 16 CV) from the column. Fractions were assayed for β-lactamase activity using Centa (Calbiochem, Gibbstown, N.J.) as a reporter β-lactamase substrate for activity in the isolated fractions. Active fractions were pooled, concentrated and further purified by gel filtration chromatography on a Superdex 75 prep grade gel filtration column (GE Healthcare, Piscataway, N.J.) pre-equilibrated in 50 mM Hepes pH 7.5, 150 mM NaCl. Active fractions were pooled concentrated, quantitated by BCA protein determination (Thermo Scientific, Rockford, Ill.), and frozen at −80° C. in 20% glycerol until use.
(§3) β-lactamase Inhibition. To determine the level of inhibition of β-lactamaseenzymes, compounds were diluted in PBS at pH 7.0 to yield concentrations between 100 and 0.005 μM in microtiter plates. An equal volume of diluted enzyme stock was added, and the plates were incubated at 37° C. for 10 min. Nitrocefin solution was then dispensed as substrate into each well at a final concentration of 100 μM, and the plates were immediately read with the kinetic program at 486 nm for 10 min on the SPECTRAMAX® Plus^384 (high-throughput microplate spectrophotometer; Molecular Devices Corp., Sunnyvale, Calif.). Maximum rates of metabolism were then compared to those in control wells (without inhibitors), and percentages of enzyme inhibition were calculated for each concentration of inhibitor. The concentration of inhibitor needed to reduce the initial rate of hydrolysis of substrate by 50% (IC50) was calculated as the residual activity of β-lactamase at 486 nm using the SoftMax Pro 5.0 software (Molecular Devices Corp.).

[1] = system: K. pneumoniae expressing the Class A ESBL CTX-M-15; assay: microbe, parasite or virus in culture; type: cell-based; details: in the presence of fixed 8 μg/mL Ceftazidime
Description: To determine the ability of test compounds to potentiate the inhibition of the growth of bacterial strains producing beta-lactamase enzymes, classic cell based screening assays were employed. Four bacteria strains producing beta-lactamase enzymes were used: K. pneumoniae expressing the Class A Extended Spectrum Beta-Lactamase (ESBL) CTX-M-15, E. coli expressing the Class A ESBL SHV-5, E. cloacae expressing the Class C P99+, and K. pneumoniae expressing the Class A carbapenemase KPC-2. In order to evaluate the ability of test compounds to inhibit beta-lactamase activity, Applicants used a modification of the broth microdilution assay. The assay was conducted in Cation Adjusted Mueller Hinton Broth (CAMHB, BD # 212322, BD Diagnostic Systems, Sparks, Md.). Bacteria strains were grown for 3-5 hours in CAMBH broth. All four strains were grown in presence of 50 μg/mL ampicillin to ensure resistance is maintained. In the meantime, test compounds were diluted in DMSO to a 0.1 mg/mL stock. The compounds were added to a microtiter plate and were diluted in 2-fold serial dilutions in CAMHB in a final concentration range of 8 μg/mL to 0.015 μg/ml. […] […] Each of these compound plates are made in quadruplicate, one for each bacteria strain. In addition to the titration of test compounds the MICs of a panel of cephalosporins is also tested to ensure the strains are behaving consistently from test to test. Once the test compound and cephalosporin are added the plates can be inoculated. Inocula are conducted according to CLSI broth microdilution method. After inoculation the plates are incubated for 16-20 hours at 37° C. then the Minimal Inhibitory Concentration (MIC) of the test compound is determined visually.

Class A ESBL CTXM-15 = biological target: T2, Class A ESBL CTXM-15 (Escherichia coli, UniProt Q9EXV5); assay: β-lactamase enzyme inhibition (nitrocefin hydrolysis), CTXM-15; type: biochemical; details: purified enzyme; nitrocefin 100 μM, PBS pH 7.0; read-out: CTXM-15 IC50 Range
T2 construct: made in house; host or cells: E. coli BL21(DE3)
Experimental: as §1, §2, §3

[2] = system: K. pneumoniae expressing the Class A carbapenemase KPC-2; assay: microbe, parasite or virus in culture; details: in the presence of fixed 8 μg/mL Ceftazidime
Description: To determine the ability of test compounds to potentiate the inhibition of the growth of bacterial strains producing beta-lactamase enzymes, classic cell based screening assays were employed. Four bacteria strains producing beta-lactamase enzymes were used: K. pneumoniae expressing the Class A Extended Spectrum Beta-Lactamase (ESBL) CTX-M-15, E. coli expressing the Class A ESBL SHV-5, E. cloacae expressing the Class C P99+, and K. pneumoniae expressing the Class A carbapenemase KPC-2. In order to evaluate the ability of test compounds to inhibit beta-lactamase activity, Applicants used a modification of the broth microdilution assay. The assay was conducted in Cation Adjusted Mueller Hinton Broth (CAMHB, BD # 212322, BD Diagnostic Systems, Sparks, Md.). Bacteria strains were grown for 3-5 hours in CAMBH broth. All four strains were grown in presence of 50 μg/mL ampicillin to ensure resistance is maintained. In the meantime, test compounds were diluted in DMSO to a 0.1 mg/mL stock. The compounds were added to a microtiter plate and were diluted in 2-fold serial dilutions in CAMHB in a final concentration range of 8 μg/mL to 0.015 μg/ml. An overlay of CAMHB containing a cephalosporin was added to the compounds at a final static concentration of 8 μg/ml. […] Each of these compound plates are made in quadruplicate, one for each bacteria strain. In addition to the titration of test compounds the MICs of a panel of cephalosporins is also tested to ensure the strains are behaving consistently from test to test. Once the test compound and cephalosporin are added the plates can be inoculated. Inocula are conducted according to CLSI broth microdilution method. After inoculation the plates are incubated for 16-20 hours at 37° C. then the Minimal Inhibitory Concentration (MIC) of the test compound is determined visually.

Class C P99 AmpC = biological target: T3, Class C P99 AmpC (Enterobacter cloacae, UniProt P05364); type: biochemical; details: purified enzyme; nitrocefin 100 μM, PBS pH 7.0; read-out: P99 AmpC IC50 Range
T3 construct: made in house; host or cells: E. coli BL21(DE3)
Experimental: as §1, §2, §3

[3] = biological target: T4, Class A carbapenemase KPC-2 (Klebsiella pneumoniae, UniProt Q9F663); assay: β-lactamase enzyme inhibition (nitrocefin hydrolysis), KPC-2; type: biochemical; details: purified enzyme; nitrocefin 100 μM, PBS pH 7.0; read-out: KPC-2 IC50 Range
T4 construct: made in house; host or cells: E. coli BL21(DE3)
Experimental: as §1, §2, §3

[4] = cellular extracts of E. coli containing SHV-5 (Examples 2-30)

T2 sequence (Q9EXV5 entry or part of it): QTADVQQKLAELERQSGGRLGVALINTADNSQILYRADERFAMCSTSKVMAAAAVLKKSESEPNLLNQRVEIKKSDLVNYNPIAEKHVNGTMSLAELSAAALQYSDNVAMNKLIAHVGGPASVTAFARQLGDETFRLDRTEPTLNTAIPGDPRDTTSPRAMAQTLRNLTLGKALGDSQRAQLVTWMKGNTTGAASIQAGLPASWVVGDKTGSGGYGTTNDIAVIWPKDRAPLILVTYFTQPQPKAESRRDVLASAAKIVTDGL
T1 sequence (P0A3M1 22-286): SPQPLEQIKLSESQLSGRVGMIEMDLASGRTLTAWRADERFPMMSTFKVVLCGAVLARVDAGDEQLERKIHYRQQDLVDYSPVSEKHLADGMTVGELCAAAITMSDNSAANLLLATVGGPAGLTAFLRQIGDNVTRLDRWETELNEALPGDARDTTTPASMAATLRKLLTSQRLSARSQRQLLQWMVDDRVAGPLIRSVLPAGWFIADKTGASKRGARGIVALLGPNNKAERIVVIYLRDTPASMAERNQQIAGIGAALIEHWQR
T4 sequence (Q9F663 25-293 limits assumed): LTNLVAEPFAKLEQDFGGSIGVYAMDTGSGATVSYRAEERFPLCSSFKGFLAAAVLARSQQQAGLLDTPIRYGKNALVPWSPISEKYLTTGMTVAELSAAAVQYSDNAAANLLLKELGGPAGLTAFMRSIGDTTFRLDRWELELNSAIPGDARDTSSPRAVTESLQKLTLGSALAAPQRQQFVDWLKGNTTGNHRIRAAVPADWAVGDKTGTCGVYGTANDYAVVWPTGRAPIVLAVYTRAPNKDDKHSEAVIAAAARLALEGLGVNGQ
T3 sequence (P05364 21-381): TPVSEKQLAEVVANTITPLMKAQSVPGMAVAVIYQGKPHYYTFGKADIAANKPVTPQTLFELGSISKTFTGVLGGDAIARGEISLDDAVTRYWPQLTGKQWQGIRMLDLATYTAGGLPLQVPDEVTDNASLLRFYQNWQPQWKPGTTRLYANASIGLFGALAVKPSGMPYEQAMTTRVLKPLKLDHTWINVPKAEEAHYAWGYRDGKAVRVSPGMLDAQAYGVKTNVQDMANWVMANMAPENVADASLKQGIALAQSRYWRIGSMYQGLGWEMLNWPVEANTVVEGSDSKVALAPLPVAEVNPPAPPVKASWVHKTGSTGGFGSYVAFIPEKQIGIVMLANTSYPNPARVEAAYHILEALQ

Compound | IC50 (Class A ESBL SHV-5; [4]) | MIC of example compound, K. pneumoniae CTX-M-15 + 8 μg/mL CAZ [1] | IC50 (Class A ESBL CTXM-15) | MIC of example compound, K. pneumoniae KPC-2 + 8 μg/mL CAZ [2] | IC50 (Class C P99 AmpC) | IC50 [3] | IC50 (Class A ESBL SHV-5; purified beta-lactamase enzyme (Examples 1 and 31-64))
CC(=O)N[C@@H](Cc1cccc(C(=O)O)c1O)B(O)O [Example 6, (1R)-1-(2-acetylamino)-2-(2-hydroxy-3-carboxyphenyl)ethyl-1-boronic acid] | 100 to 1000 nM | C (C represents an MIC of <1 μg/mL) | < 10 nM | C (C represents an MIC of <1 μg/mL) | 10 to 100 nM |  | 
NC(=O)COc1cccc(CC(=O)N[C@@H](Cc2cccc(C(=O)O)c2O)B(O)O)c1 [Example 8, (1R)-1-[(3-carbamoylmethoxy)-phenyl]-acetylamino-(3-carboxy-2-hydroxy), benzyl-methylboronic acid] | < 10 nM | C (C represents an MIC of <1 μg/mL) | < 10 nM | C (C represents an MIC of <1 μg/mL) | < 10 nM |  | 
N[C@H](C(=O)N[C@@H](Cc1cccc(C(=O)O)c1O)B(O)O)c1ccccc1.O=CO [Example 12, (1R,2′S)-1-(2-amino-2-phenylacetylamino)-2-(2-hydroxy-3-carboxyphenyl)ethyl-1-boronic acid formate salt] | 100 to 1000 nM | C (C represents an MIC of <1 μg/mL) | 10 to 100 nM | C (C represents an MIC of <1 μg/mL) | 100 to 1000 nM |  | 
O=C(Cc1cc(O)ccc1O)N[C@@H](Cc1cccc(C(=O)O)c1O)B(O)O [Example 18, (1R)-1-(2-(2,5-dihydroxyphenyl)acetylamino)-2-(2-hydroxy-3-carboxyphenyl)ethyl-1-boronic acid] | < 10 nM | C (C represents an MIC of <1 μg/mL) | < 10 nM |  | < 10 nM | < 10 nM | 
O=C(COCc1ccccc1)N[C@@H](Cc1cccc(C(=O)O)c1O)B(O)O [Example 22, (1R)-1-(2-benzyloxyacetylamino)-2-(2-hydroxy-3-carboxyphenyl)ethyl-1-boronic acid] | < 10 nM | C (C represents an MIC of <1 μg/mL) | < 10 nM | C (C represents an MIC of <1 μg/mL) | 10 to 100 nM | < 10 nM | 
CCCCCCC(=O)N[C@@H](Cc1cccc(C(=O)O)c1O)B(O)O [Example 24, (1R)-1-(heptanoylamino)-2-(2-hydroxy-3-carboxyphenyl)ethyl-1-boronic acid] | < 10 nM | C (C represents an MIC of <1 μg/mL) | < 10 nM | C (C represents an MIC of <1 μg/mL) | < 10 nM | 10 to 100 nM | 
CC(C)(C)CC(=O)N[C@@H](Cc1cccc(C(=O)O)c1O)B(O)O [Example 25, (1R)-1-(3,3-Dimethyl-butyrylamino)-(3-carboxy-2-hydroxy)benzyl-methylboronic acid] | 10 to 100 nM | C (C represents an MIC of <1 μg/mL) | 10 to 100 nM | C (C represents an MIC of <1 μg/mL) | 10 to 100 nM | 10 to 100 nM | 
O=C(N[C@@H](Cc1cccc(C(=O)O)c1O)B(O)O)c1cccc(O)c1 [Example 28, (1R)-1-(3-hydroxybenzoylamino)-2-(2-hydroxy-3-carboxyphenyl)ethyl-1-boronic acid] | 10 to 100 nM | C (C represents an MIC of <1 μg/mL) | < 10 nM | C (C represents an MIC of <1 μg/mL) | < 10 nM | 10 to 100 nM | 
O=C(N[C@@H](Cc1cccc(C(=O)O)c1O)B(O)O)c1ccc(Cl)nc1 [Example 31, (1R)-1-(6-Chloro-pyridine-3-carbonyl)-amino-1-(3-carboxy-2-hydroxy)benzyl-methylboronic acid] |  | C (C represents an MIC of <1 μg/mL) | < 10 nM | C (C represents an MIC of <1 μg/mL) | < 10 nM | < 10 nM | < 10 nM
